This note sets out measurements from patent US9765069B2, “Antimicrobial compounds” (OXFORD UNIVERSITY INNOVATION LIMITED, priority 2012, dated 2017).

One data set deals with S1. The data set can be described thus: MIC determination (bacteria), strain S1. In kind it is cell-based, S. aureus. As to conditions: 2-fold broth dilution. Here is the method:
(§1) MIC determination (bacteria); MICs were determined based on Clinical and Laboratory Standards Institute (CLSI) methodology (Methods for dilution antimicrobial susceptibility tests for bacteria that grow aerobically; Approved Standard—seventh edition. 2006, M7-A7, CLSI, Wayne Pa.) by a 2-fold broth dilution technique in Mueller Hinton (pH7.4 Biorad). For S. pneumoniae, the medium was supplemented with 2.5% laked horse blood. For H. influenzae, the medium was haemophilus test medium (H.T.M.). Overnight cultures were diluted to obtain the final inoculum of 10^5 cfu/well. Incubation was 37° C. overnight in ambient air. The MIC was defined as the lowest concentration which inhibited all visual growth and expressed in μg/ml. For each bacterial species, all of the molecules were tested in the same experiment in order to give a head-to-head comparison.
Background: Dilution methods test growth across graded concentrations, often in twofold steps.

In another data set the test system is S26. Briefly: MIC determination (bacteria), strain S26. The data set is classed as cell-based, S. aureus. As to conditions: 2-fold broth dilution. The procedure:
as §1

For another data set, the system named is S4. The data set can be described thus: MIC determination (bacteria), strain S4. In kind it is cell-based, S. aureus. As to conditions: 2-fold broth dilution. The procedure:
as §1

The subject of data set [1] is S2 (S. aureus 2, MRSA in vivo). Briefly: MIC determination (bacteria), strain S2. The data set is classed as cell-based. As to conditions: 2-fold broth dilution. The procedure:
as §1

The subject of another data set is E1. The data set can be described thus: MIC determination (bacteria), strain E1. In kind it is cell-based, enterococcus. As to conditions: 2-fold broth dilution. The procedure:
as §1

A further data set relates to E2. Briefly: MIC determination (bacteria), strain E2. The data set is classed as cell-based, enterococcus. The settings on record: 2-fold broth dilution. The procedure:
as §1

The subject of a further data set is P1. The data set can be described thus: MIC determination (bacteria), strain P1. The data set is classed as cell-based, S. pneumoniae. As to conditions: 2-fold broth dilution. Here is the method:
as §1

Another data set relates to P9. The data set can be described thus: MIC determination (bacteria), strain P9. The data set is classed as cell-based, S. pneumoniae. As to conditions: 2-fold broth dilution. Here is the method: as §1
A further data set deals with P9B. Briefly: MIC determination (bacteria), strain P9B. In kind it is cell-based, S. pneumoniae. As to conditions: 2-fold broth dilution. The procedure: as §1
A further data set concerns H3. Briefly: MIC determination (bacteria), strain H3. The settings on record: haemophilus test medium. The data set is classed as cell-based, H. influenzae. The procedure:
as §1

The next data set deals with H4. Briefly: MIC determination (bacteria), strain H4. The data set is classed as cell-based, H. influenzae. The settings on record: haemophilus test medium. The procedure:
as §1

The target of the next data set is E. Coli RNAP (Escherichia coli, UniProt P0A8T7+P0A8V2). The data set can be described thus: In vitro activity against E. Coli RNAP. The data set is classed as biochemical. The source says:
(§2) These properties can be determined according to techniques that are well known in the art.

In a further data set the test system is S. aureus membrane. The data set can be described thus: In vitro activity in depolarization of S. aureus membrane. The settings on record: read-out: DEP (IC50). The data set is classed as cell-based.
Source text: as §2

The test system of data set [2] is mammalian_red blood cell membrane. Briefly: In vitro mammalian red blood cell membrane lysis activity. In kind it is cell-based. As to conditions: Active or inactive at 100 μM.
Source text: as §2

Data set [3] relates to human embryonic kidney 293 cells. Briefly: in vitro toxicities against human embryonic kidney 293 cells. As to conditions: human embryonic kidney 293 cells. In kind it is cell-based.
Source text: as §2

For data set [4], the system named is human peripheral blood cells. The data set can be described thus: in vitro toxicities human peripheral blood cells. The settings on record: human peripheral blood cells. The data set is classed as cell-based.
Source text: as §2

Data set [5] can be described thus: aqueous solubility at pH 7.4. The settings on record: aqueous solubility at pH 7.4 (water with 2% DMSO). In kind it is physicochemical.
Source text: as §2

pIC50: −log10 of the molar value. In brackets after ≈: the same amount, converted by molar mass.

Sequence of E. Coli RNAP (P0A8V2 whole entry): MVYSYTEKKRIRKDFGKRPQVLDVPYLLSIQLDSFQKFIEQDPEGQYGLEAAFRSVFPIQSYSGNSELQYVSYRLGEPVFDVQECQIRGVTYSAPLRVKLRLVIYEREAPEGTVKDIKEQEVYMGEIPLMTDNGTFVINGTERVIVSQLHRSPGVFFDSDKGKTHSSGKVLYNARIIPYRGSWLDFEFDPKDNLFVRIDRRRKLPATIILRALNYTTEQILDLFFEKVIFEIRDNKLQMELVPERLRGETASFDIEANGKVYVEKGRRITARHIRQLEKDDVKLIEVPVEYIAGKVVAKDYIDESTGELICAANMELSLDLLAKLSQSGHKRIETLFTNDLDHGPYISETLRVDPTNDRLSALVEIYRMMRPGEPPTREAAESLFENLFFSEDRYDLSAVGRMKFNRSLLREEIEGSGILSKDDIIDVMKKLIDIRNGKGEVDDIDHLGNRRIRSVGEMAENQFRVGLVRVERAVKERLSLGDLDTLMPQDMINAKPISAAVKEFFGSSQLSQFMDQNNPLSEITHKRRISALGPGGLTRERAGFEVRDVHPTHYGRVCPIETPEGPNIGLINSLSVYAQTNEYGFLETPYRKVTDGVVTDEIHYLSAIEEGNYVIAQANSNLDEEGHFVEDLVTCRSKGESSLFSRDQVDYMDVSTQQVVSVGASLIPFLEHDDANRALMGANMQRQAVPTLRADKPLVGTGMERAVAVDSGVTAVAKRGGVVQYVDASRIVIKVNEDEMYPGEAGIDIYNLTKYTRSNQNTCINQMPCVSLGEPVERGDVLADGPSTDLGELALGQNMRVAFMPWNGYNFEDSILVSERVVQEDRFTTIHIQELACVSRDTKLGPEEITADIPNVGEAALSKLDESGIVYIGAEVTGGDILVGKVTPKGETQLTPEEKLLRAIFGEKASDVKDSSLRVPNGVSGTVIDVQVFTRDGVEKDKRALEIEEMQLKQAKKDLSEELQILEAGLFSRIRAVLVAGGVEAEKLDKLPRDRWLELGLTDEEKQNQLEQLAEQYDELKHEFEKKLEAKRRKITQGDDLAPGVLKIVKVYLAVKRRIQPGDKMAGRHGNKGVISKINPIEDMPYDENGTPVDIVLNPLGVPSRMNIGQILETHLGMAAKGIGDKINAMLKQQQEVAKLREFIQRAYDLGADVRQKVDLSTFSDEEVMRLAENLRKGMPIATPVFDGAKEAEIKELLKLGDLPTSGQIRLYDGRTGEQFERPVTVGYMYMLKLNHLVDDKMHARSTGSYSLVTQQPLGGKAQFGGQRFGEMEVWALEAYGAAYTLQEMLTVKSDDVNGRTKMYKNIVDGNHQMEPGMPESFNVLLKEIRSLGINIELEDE
Sequence of E. Coli RNAP (P0A8T7 whole entry): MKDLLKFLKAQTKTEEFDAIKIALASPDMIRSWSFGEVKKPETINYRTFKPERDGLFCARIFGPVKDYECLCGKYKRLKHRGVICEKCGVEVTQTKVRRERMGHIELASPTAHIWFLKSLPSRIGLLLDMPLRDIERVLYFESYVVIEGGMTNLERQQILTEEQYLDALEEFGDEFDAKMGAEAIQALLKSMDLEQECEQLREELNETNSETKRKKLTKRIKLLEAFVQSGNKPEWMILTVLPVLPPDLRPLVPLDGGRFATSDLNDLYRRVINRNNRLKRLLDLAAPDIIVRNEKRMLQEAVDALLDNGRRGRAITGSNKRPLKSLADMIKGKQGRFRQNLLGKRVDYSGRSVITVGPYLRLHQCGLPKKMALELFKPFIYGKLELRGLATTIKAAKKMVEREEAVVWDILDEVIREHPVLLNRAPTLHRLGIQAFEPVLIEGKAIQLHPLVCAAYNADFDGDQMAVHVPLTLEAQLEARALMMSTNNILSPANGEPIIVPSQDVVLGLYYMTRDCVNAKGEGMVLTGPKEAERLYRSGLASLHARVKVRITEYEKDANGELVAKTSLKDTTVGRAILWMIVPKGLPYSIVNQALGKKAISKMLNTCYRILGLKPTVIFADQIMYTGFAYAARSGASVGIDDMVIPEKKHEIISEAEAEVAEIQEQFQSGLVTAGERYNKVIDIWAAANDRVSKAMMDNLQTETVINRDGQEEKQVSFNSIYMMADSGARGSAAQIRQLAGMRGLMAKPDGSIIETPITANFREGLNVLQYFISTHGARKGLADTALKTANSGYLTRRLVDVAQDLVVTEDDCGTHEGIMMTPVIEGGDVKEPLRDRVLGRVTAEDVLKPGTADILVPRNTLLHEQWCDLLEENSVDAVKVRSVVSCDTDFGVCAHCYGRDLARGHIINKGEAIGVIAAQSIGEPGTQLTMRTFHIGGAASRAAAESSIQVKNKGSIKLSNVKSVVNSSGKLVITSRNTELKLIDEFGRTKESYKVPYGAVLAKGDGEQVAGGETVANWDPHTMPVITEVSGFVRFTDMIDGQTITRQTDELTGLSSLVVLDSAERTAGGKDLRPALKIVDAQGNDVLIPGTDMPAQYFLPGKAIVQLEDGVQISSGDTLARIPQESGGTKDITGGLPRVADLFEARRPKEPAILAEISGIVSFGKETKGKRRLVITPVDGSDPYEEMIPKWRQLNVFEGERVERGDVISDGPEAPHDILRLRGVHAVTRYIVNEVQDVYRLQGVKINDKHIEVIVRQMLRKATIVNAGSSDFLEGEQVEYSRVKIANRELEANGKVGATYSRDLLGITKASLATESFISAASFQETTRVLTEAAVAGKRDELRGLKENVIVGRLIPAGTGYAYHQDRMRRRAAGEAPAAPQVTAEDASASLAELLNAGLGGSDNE
Sequence of E. Coli RNAP (P0A7Z4 whole entry partner): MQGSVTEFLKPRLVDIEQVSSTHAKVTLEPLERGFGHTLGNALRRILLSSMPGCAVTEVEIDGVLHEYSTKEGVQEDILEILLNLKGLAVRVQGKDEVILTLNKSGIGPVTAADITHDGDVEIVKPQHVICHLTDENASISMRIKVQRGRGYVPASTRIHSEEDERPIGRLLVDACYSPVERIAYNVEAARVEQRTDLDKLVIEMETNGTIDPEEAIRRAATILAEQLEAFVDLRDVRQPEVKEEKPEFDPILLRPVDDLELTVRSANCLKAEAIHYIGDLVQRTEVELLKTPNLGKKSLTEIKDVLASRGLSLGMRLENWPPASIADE
Sequence of E. Coli RNAP (P0A800 whole entry partner): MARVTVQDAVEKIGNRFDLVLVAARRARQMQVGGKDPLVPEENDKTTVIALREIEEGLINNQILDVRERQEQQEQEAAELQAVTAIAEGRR

Usually pIC50 stands for the IC50 on a negative log10 scale, so that one unit is a factor of ten. Take `CSCCC1C(=O)C(=C(O)CC23CC4CC(C)(CC(C)(C4)C2)C3)C(=O)N1C(C)=O` (stereo not drawn) [31e]: the “MIC S1” value with S1 (Table 2) was determined as 2 µg/mL (≈ 4.77 µM). The “MIC S26” value in the data set on S26 (Table 2) was found to be 1 µg/mL (≈ 2.38 µM). In the data set on S4 (Table 2), the “MIC S4” value stood at 4 µg/mL (≈ 9.53 µM). In addition, the “MIC S2” value in [1] (Table 2) turned out to be 4 µg/mL (≈ 9.53 µM). Also, the “MIC E1” value against E1 (Table 2) came out at 4 µg/mL (≈ 9.53 µM). For the same compound, the “MIC E2” value against E2 (Table 2) was determined as 4 µg/mL (≈ 9.53 µM). Moreover, the “MIC P1” value with P1 (Table 2) is 2 µg/mL (≈ 4.77 µM). For the same compound, the “MIC P9” value against P9 (Table 2) came out at 2 µg/mL (≈ 4.77 µM). Also, the “MIC P9B” value in the data set on P9B (Table 2) worked out at 4 µg/mL (≈ 9.53 µM). Moreover, the “MIC H3” value in the data set with H3 (Table 2) was found to be 32 µg/mL (≈ 76.3 µM). For the same compound, the “MIC H4” value against H4 (Table 2 and its footnote f) was determined as 4 µg/mL (≈ 9.53 µM). The pIC50 is 4.96 on E. Coli RNAP and 4.04 in the data set on S. aureus membrane. The “RBC membrane lysis activity (active/inactive)” value in data set [2] is recorded as “Active”. For the same compound, in data set [3], the “Hek293 (LD50, μM)” value is 30.3 µM. In addition, the “PMBC (LD50, μM)” value in [4] is 90.9 µM. Moreover, the “SOL” value in data set [5] was >300 µM.

Take `CCCCCCC(=O)N1CC(=O)C(=C(O)CCCOc2ccc(Cl)cc2C)C1=O` [28h]: in the data set on S1 (Table 2), the “MIC S1” value stood at 1 µg/mL (≈ 2.37 µM). Further, the “MIC S26” value in the data set with S26 (Table 2) worked out at 4 µg/mL (≈ 9.48 µM). Also, the “MIC S4” value against S4 (Table 2) is 4 µg/mL (≈ 9.48 µM). In addition, the “MIC S2” value in data set [1] (Table 2) worked out at 2 µg/mL (≈ 4.74 µM). For the same compound, the “MIC E1” value in the data set with E1 (Table 2) stood at 0.5 µg/mL (≈ 1.19 µM). In addition, in the data set on E2 (Table 2), the “MIC E2” value is 0.5 µg/mL (≈ 1.19 µM). Also, the “MIC P1” value in the data set with P1 (Table 2) is 0.5 µg/mL (≈ 1.19 µM). Also, the “MIC P9” value in the data set on P9 (Table 2) came out at 0.5 µg/mL (≈ 1.19 µM). In addition, the “MIC P9B” value in the data set on P9B (Table 2) came to 4 µg/mL (≈ 9.48 µM). Also, the “MIC H3” value against H3 (Table 2) is 8 µg/mL (≈ 19 µM). For the same compound, the “MIC H4” value with H4 (Table 2 and its footnote f) came out at 4 µg/mL (≈ 9.48 µM). The compound also had a pIC50 on E. Coli RNAP of 4.48. Also, in data set [3], the “Hek293 (LD50, μM)” value was determined as 30.3 µM. For the same compound, the “PMBC (LD50, μM)” value in data set [4] stood at 90.9 µM. In addition, the “SOL” value in data set [5] was >300 µM.

Consider `CCCC(=O)N1CC(=O)C(=C(O)CC23CC4CC(C)(CC(C)(C4)C2)C3)C1=O` [27k], for which, in the data set on S1 (Table 2), the “MIC S1” value was determined as 2 µg/mL (≈ 5.35 µM). For the same compound, the “MIC S26” value against S26 (Table 2) amounted to 2 µg/mL (≈ 5.35 µM). For the same compound, the “MIC S4” value against S4 (Table 2) is 2 µg/mL (≈ 5.35 µM). The “MIC S2” value in [1] (Table 2) turned out to be 2 µg/mL (≈ 5.35 µM). Also, the “MIC E1” value with E1 (Table 2) was 0.5 µg/mL (≈ 1.34 µM). In addition, in the data set on E2 (Table 2), the “MIC E2” value came out at 1 µg/mL (≈ 2.68 µM). For the same compound, the “MIC P1” value in the data set with P1 (Table 2) turned out to be 1 µg/mL (≈ 2.68 µM). In addition, in the data set with P9 (Table 2), the “MIC P9” value came out at 0.5 µg/mL (≈ 1.34 µM). For the same compound, in the data set on P9B (Table 2), the “MIC P9B” value amounted to 1 µg/mL (≈ 2.68 µM). Moreover, the “MIC H3” value in the data set with H3 (Table 2) was determined as 8 µg/mL (≈ 21.4 µM). In the data set on H4 (Table 2 and its footnote f), the “MIC H4” value turned out to be 4 µg/mL (≈ 10.7 µM). Further, the pIC50 was 5.17 at E. Coli RNAP and < 4.00 with S. aureus membrane. Further, in data set [2], the “RBC membrane lysis activity (active/inactive)” value is given as “Active”. Moreover, the “Hek293 (LD50, μM)” value in [3] was 30.3 µM. The “PMBC (LD50, μM)” value in data set [4] came to 90.9 µM. Further, in data set [5], the “SOL” value was >300 µM.

`CCCCCCCCCC(O)=C1C(=O)CCN(C(=O)c2ccccc2)C1=O` [25a]: in the data set with S1 (Table 1), the “MIC S1” value was found to be 2 µg/mL (≈ 5.38 µM). For the same compound, the “MIC S26” value against S26 (Table 1) worked out at 4 µg/mL (≈ 10.8 µM). Moreover, the “MIC S4” value in the data set with S4 (Table 1) was determined as 2 µg/mL (≈ 5.38 µM). Also, the “MIC S2” value in [1] (Table 1) worked out at 4 µg/mL (≈ 10.8 µM). Moreover, in the data set on E1 (Table 1), the “MIC E1” value amounted to 2 µg/mL (≈ 5.38 µM). For the same compound, the “MIC E2” value with E2 (Table 1) amounted to 4 µg/mL (≈ 10.8 µM). In addition, the “MIC P1” value against P1 (Table 1) was found to be 0.5 µg/mL (≈ 1.35 µM). Further, the “MIC P9” value in the data set on P9 (Table 1) was determined as 0.5 µg/mL (≈ 1.35 µM). For the same compound, the “MIC P9B” value in the data set on P9B (Table 1) worked out at 4 µg/mL (≈ 10.8 µM). In the data set with H3 (Table 1), the “MIC H3” value turned out to be 16 µg/mL (≈ 43.1 µM). In addition, the “MIC H4” value against H4 (Table 1) stood at 8 µg/mL (≈ 21.5 µM). In addition, the pIC50 against E. Coli RNAP is < 4.00; in the data set with S. aureus membrane it was 4.08. Moreover, in [2], the “RBC membrane lysis activity (active/inactive)” value is “Inactive^d”. Further, the “Hek293 (LD50, μM)” value in data set [3] was >90.9 µM. Further, in data set [4], the “PMBC (LD50, μM)” value is >90.9 µM. The “SOL” value in data set [5] is >300 µM.

Regarding `CCCCCCC(=O)N1CC(=O)C(=C(O)CC(C)CC(C)(C)C)C1=O` (stereo not drawn) [27h], the “MIC S1” value against S1 (Table 2) worked out at 0.25 µg/mL (≈ 0.711 µM). The “MIC S26” value in the data set with S26 (Table 2) worked out at 0.5 µg/mL (≈ 1.42 µM). The “MIC S4” value with S4 (Table 2) stood at 0.5 µg/mL (≈ 1.42 µM). In addition, in [1] (Table 2), the “MIC S2” value is 0.5 µg/mL (≈ 1.42 µM). Also, the “MIC E1” value in the data set on E1 (Table 2) was determined as 0.25 µg/mL (≈ 0.711 µM). Moreover, the “MIC E2” value in the data set on E2 (Table 2) was 0.25 µg/mL (≈ 0.711 µM). Besides, the “MIC P1” value in the data set with P1 (Table 2) is <0.06 µg/mL. Besides, the “MIC P9” value against P9 (Table 2) was <0.06 µg/mL. For the same compound, the “MIC P9B” value in the data set on P9B (Table 2) came to 1 µg/mL (≈ 2.85 µM). For the same compound, the “MIC H3” value in the data set on H3 (Table 2) came out at 2 µg/mL (≈ 5.69 µM). Besides, in the data set with H4 (Table 2 and its footnote f), the “MIC H4” value is 2 µg/mL (≈ 5.69 µM). The pIC50 at E. Coli RNAP is < 4.00. Moreover, the “Hek293 (LD50, μM)” value in [3] is 30.3 µM. For the same compound, the “PMBC (LD50, μM)” value in data set [4] turned out to be 90.9 µM. Moreover, the “SOL” value in [5] lay in the range of 150 to 300 µM.
